Biological target: HIF PHD2 (Homo sapiens, UniProt Q9GZT9)
Experiment: PHD2 inhibition assay (TR-FRET, VCB-Eu detection of hydroxylated P564-HIF1α peptide)
Assay type: biochemical
Details: 2 nM PHD2, 100 nM P564-HIF1α peptide, 0.25 μM 2-oxoglutarate, 100 μM FeCl2, 2 mM ascorbic acid, pH 6
Method: Inhibition of HIF PHD2 activity was quantified utilizing the TR-FRET technology. HIF PHD2 catalyzes a hydroxyl modification on the proline residue of the P564-HIF1α peptide substrate (Biotin-[…] (SEQ ID NO: 7)) resulting in recognition and binding of the europylated Von Hippel-Lindau protein (pVHL), elongin B and elongin C heterotrimeric (VCB-Eu) complex.
The PHD2 inhibition assay was executed by addition of freshly dissolved FeCl2 to 178.57 μM (100 μM final concentration) in PHD2 Reaction Buffer containing 30 mM MES, pH 6, 10 mM NaCl, 0.25% Brij-35, 0.01% BSA, and 1% DMSO. 28 μL of the iron solution and 2 μL of inhibitor compounds serially diluted in 100% DMSO (5% DMSO final) were added to black polypropylene 96-well microtiter plates. To that, 10 μL of 10 nM PHD2 (2 nM final) was added to all wells of the plate except for the 8 wells of column 12 (LO control), and allowed to incubate at room temperature on the shaker for one hour. Column 6 was the HI control containing PHD2 enzyme and 5% DMSO vehicle, but no inhibitor compound. To initiate the PHD2 enzymatic reaction, 10 μL of a solution containing 500 nM P564-HIF1α peptide (100 nM final), 10 mM ascorbic acid (2 mM final), and 1.25 μM 2-oxoglutarate (α-ketoglutarate; 0.25 μM final) in PHD2 Reaction Buffer was added to all wells of the plate and allowed to incubate on the shaker at room temperature for one hour.
The reaction was terminated by addition of 25 μL TR-FRET Buffer (50 mM TRIS-HCl, pH 9, 100 mM NaCl, 0.05% BSA, and 0.5% Tween-20) containing 150 mM succinate (product inhibitor; 50 mM final), 75 nM streptavidin-APC (25 nM final), and 7.5 nM VCB-Eu (2.5 nM final). The TR-FRET detection reagents were placed on a shaker for 1 hour to reach binding equilibrium before reading on the Discovery platform (PerkinElmer). Europium is excited at 315 nm and phosphoresces at 615 nm with a large Stoke's shift. APC, in turn, emits at 655 nm upon excitation at 615 nm. The TR-FRET signal is measured as the ratio of the APC 655 nm signal divided by the internal europium reference 615 nm emission signal.
The POC (percentage of control) was determined by comparing the signal from hydroxylated peptide substrate in the enzyme reaction containing inhibitor compound with that from PHD2 enzyme with DMSO vehicle alone (HI control), and no enzyme (LO control). POC was calculated using the formula: % control (POC)=(cpd−average LO)/(average HI−average LO)*100. Data (consisting of POC and inhibitor concentration in μM) was fitted to a 4-parameter equation (y=A+((B−A)/(1+((x/C)^D))), where A is the minimum y (POC) value, B is the maximum y (POC), C is the x (cpd concentration) at the point of inflection and D is the slope factor) using a Levenburg-Marquardt non-linear regression algorithm.

HIF PHD2, sequence (Q9GZT9 whole entry): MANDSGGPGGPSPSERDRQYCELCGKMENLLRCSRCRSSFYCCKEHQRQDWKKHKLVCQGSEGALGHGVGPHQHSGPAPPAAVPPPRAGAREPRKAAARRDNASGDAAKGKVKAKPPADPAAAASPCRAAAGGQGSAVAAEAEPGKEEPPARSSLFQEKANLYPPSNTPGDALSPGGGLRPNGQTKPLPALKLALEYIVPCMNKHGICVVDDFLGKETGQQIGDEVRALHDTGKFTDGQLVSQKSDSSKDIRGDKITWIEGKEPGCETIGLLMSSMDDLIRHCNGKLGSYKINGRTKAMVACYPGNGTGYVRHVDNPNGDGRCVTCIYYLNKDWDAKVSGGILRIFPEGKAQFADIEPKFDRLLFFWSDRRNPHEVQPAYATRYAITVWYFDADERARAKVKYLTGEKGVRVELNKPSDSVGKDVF

IC50: 0.042 µM
SMILES: Cc1ccc(S(=O)(=O)n2cc(-c3ncc4c(O)c(C(=O)NCC(=O)O)c(=O)n(C)c4n3)c3ccccc32)cc1 [Example 58, 2-(5-hydroxy-8-methyl-7-oxo-2-(1-tosyl-1H-indol-3-yl)-7,8-dihydropyrido[2,3-d]pyrimidine-6-carboxamido)acetic acid]
